Reference: patent US11116774B2, “Modulators of toll-like receptors for the treatment of HIV” (Gilead Sciences, Inc., priority 2014, dated 2021)
Where two headings read alike, the source gives them in different places.

Assays:
[1] = system: HIV-1 expression in PBMC cultures from HIV-1 infected donors on cART; experiment: Induced HIV-1 expression in PBMC cultures from HIV-1 infected donors on cART (Example 208); format: cell-based, human; conditions: Tables 7-11; for fold induction at 0.01 µM / fold induction at 0.156 µM / fold induction at 2.5 µM: Human immunodeficiency virus 1, PBMC; for fold induction at 0.01 µM: read-out: Fold HIV-1 Induction, Geometric Mean, 0.01 μM
Protocol: Isolated PBMCs were treated with various concentrations (0.1, 1, and 10 μM) of the TLR7 modulating compounds (compounds of Example 4 and Example 49) or dimethyl sulfoxide (DMSO) treated (vehicle control) for 4 to 5 days. The cultures were maintained in the presence of antivirals (elvitegravir and efavirenz at 100 nM each) to prevent viral spread and amplification in order to measure initial virus production (latency reversal) created by the TLR7 modulating compounds. At the end of the incubation period cell-free culture supernatants were harvested and HIV-1 RNA levels were quantified by the COBAS® AmpliPrep/COBAS® TaqMan HIV-1 Test, v2.0 (Roche).
Using the method described above in Example 208, HIV-1 expression in PBMC cultures derived from four additional HIV-1 infected donors on cART were tested in the presence of the compounds of Examples 4, 29, 120, 121, 122, 123, 124, resiquimod, and imiquimod.

[2] = system: polyfunctional proliferating CD8 T cells (CFSE low, IFNg+, TNFa+); experiment: Induction of HIV-specific polyfunctional CD8 T cells by combination with an IDO1 inhibitor (Example 217); format: cell-based, human
Protocol: PBMCs from 4 HIV-infected donors (Donor IDs 180-183) on suppressive cART were isolated, as described previously, stained with CFSE, and treated with 500 ng/ml 15-mer peptide pools derived from overlapping HIV gag, pol, nef, and env consensus peptides (JPT Peptide Technologies GmbH). PBMC cultures were treated with DMSO or the compound of Example 49 (GS-9620) at 0.1 uM. In some cultures treated with Example 49, the IDO1 small molecule inhibitor, INCB024360, was combined at 2 μM. Cells were incubated at 37° C. for 8 days, then split into duplicate sets and stained in DPBS with LIVE/DEAD Fixable Aqua Dead Cell Stain (Life Technologies). The immune recall response was performed as previously described. FACS was performed on a LSR Fortessa (BD Biosciences) and data analysis was done with FlowJo software (TreeStar). Data was plotted and statistical analysis was done with GraphPad Prism software (GraphPad).

[3] = read-out: Fold HIV-1 Induction, Geometric Mean, 0.156 μM, donors 152-155
[4] = read-out: Fold HIV-1 Induction, Geometric Mean, 2.5 μM, donors 152-155

Structure (SMILES) | Donors with ≥2-fold HIV-1 Induction ([1]; 0.01 μM) | Donors with ≥2-fold HIV-1 Induction ([1]; 0.156 μM) | Donors with ≥2-fold HIV-1 Induction ([1]; 2.5 μM) | fold induction at 0.01 µM ([1]; donors 152-155) | fold induction at 0.156 µM [1, 3] | fold induction at 2.5 µM [1, 4] | fold induction at 2.5 µM ([1]; 96 h, read-out: Fold HIV-1 Induction, 2.5 μM, per donor, supernatants Day 4, PBMCs added to pre-plated compounds) | further increase of mean level of polyfunctional proliferating CD8 T cells (TLR7 only vs. TLR7+IDO1) [2] [%] | fold induction at 0.156 µM ([1]; 96 h, read-out: Fold HIV-1 Induction, 0.156 μM, per donor, supernatants Day 4, PBMCs added to pre-plated compounds)
COCCOc1cc2c([nH]c(=O)n2Cc2ccc(-c3ccc(CN4CCCC4)cc3)cc2)c(N)n1 [Example 120, 4-amino-6-(2-methoxyethoxy)-1-((4′-(pyrrolidin-1-ylmethyl)-[1,1-biphenyl]-4-yl)methyl)-1H-imidazo[4,5-c]pyridin-2(3H)-one] | 4 of 4 | 4 of 4 | 4 of 4 | 3.9 | 5.5 | 4 |  |  | 
COCCOc1nc(N)c2[nH]c(=O)n(Cc3ccc(-c4ccc(CN5CCCC5)cc4)cc3)c2c1Cl [Example 121, 4-amino-7-chloro-6-(2-methoxyethoxy)-1-((4′-(pyrrolidin-1-ylmethyl)-[1,1-biphenyl]-4-yl)methyl)-1H-imidazo[4,5-c]pyridin-2(3H)-one] | 2 of 4 | 2 of 4 | 4 of 4 | 1.3 | 1.3 | 2.9 |  |  | 
COCCOc1nc(N)c2nc(O)n(Cc3ccccc3)c2n1 [Example 122, 6-amino-9-benzyl-2-(2-methoxyethoxy)-9H-purin-8-ol, reference compound] | 3 of 4 | 3 of 4 | 4 of 4 | 5 | 4.8 | 6.9 |  |  | 
CCc1nc2c(N)nc3ccccc3c2n1CCCCNS(C)(=O)=O [Example 123, N-(4-(4-amino-2-ethyl-1H-imidazo[4,5-c]quinolin-1-yl)butyl)methane sulfonamide, reference compound] | 2 of 4 | 3 of 4 | 4 of 4 | 1.9 | 3.4 | 5.1 | 3.3 |  | 
Nc1nc(=O)c2sc(=O)n([C@@H]3O[C@H](CO)C[C@H]3O)c2[nH]1 [Example 124, 5-amino-3-((2R,3R,5S)-3-hydroxy-5-(hydroxymethyl)tetrahydrofuran-2-yl)thiazolo[4,5-d]pyrimidine-2,7(3H,4H)-dione, reference compound] | 3 of 4 | 2 of 4 | 2 of 4 | 3.7 | 1.8 | 1.6 |  |  | 
NS(=O)(=O)NCCNc1nonc1C(=NO)Nc1ccc(F)c(Br)c1 [INCB024360, reference compound] |  |  |  |  |  |  |  | 70 | 
CC(C)Cn1cnc2c(N)nc3ccccc3c21 [imiquimod, reference compound] | 4 of 4 | 4 of 4 | 3 of 4 | 4.3 | 5.4 | 4.8 |  |  | 4.4
CCOCc1nc2c(N)nc3ccccc3c2n1CC(C)(C)O [resiquimod, reference compound] |  |  |  | 5 | 6.9 | 7.4 |  |  | 
